Measurements published in PMC7346179, “Fe Porphyrin-Based SOD Mimic and Redox-Active Compound, (OH)FeTnHex-2-PyP^4+, in a Rodent Ischemic Stroke (MCAO) Model: Efficacy and Pharmacokinetics as Compared to Its Mn Analogue, (H2O)MnTnHex-2-PyP^5+” (Antioxidants, 2020).
Where “and” joins values, the source holds several entries; their conditions need not be identical. Equal values may be shown once.

Tests used:
[1] = cited from earlier work
rat MCAO stroke model = test: 7-day rat MCAO efficacy study; format: in vivo, rats; details: 0.225 mg/kg twice per day 7 days
Experimental: The 7-day rat MCAO study was done as described in [9]. The 250–275 g Wistar rats were used as another species is a requirement for preclinical stroke research. The duration of the right MCAO was 90 min. […] The first dose was given IV slowly via the […] at 5 min after ischemia/reperfusion. The following doses were given SC. At day 7 post-injury, a person blinded to the treatment groups assessed the neurological deficit and then brains were harvested for infarct volume measurements.

SOD-deficient E. coli = details: higher than MnHex; cited from earlier work
[2] = 7-day PK study in healthy rats; format: in vivo
Experimental: Samples were prepared as described in [10] with modifications to accommodate the small tissue sizes and enhance the detection sensitivity. Quantitative liquid chromatography electrospray-ionization tandem mass spectrometry (LCMS/MS) analysis was performed on a Shimadzu 20A series HPLC (LC)-Applied Biosystems/MDS Sciex API 3200 QTrap or API 4000 QTrap tandem-mass spectrometer (MS/MS) as described earlier. The use of heptafluorobutyric acid (HFBA) mobile phase modifier as an ion-pairing agent increases the overall lipophilicity and volatility, which increases the retention and ionization efficiency of the analytes, affording an abundance of HFBA-associated ions. […] (OH)FeTnBuOE-2-PyP^4+ was prepared as described for other Fe(III) N-alkylpyridylporphyrins and analogous (H2O)MnTnBuOE-2-PyP^5+ [13, 16]. The solvents employed were: A = 95:5 H2O:MeCN (0.1% HFBA); B = MeCN (0.1% HFBA). […] With the chosen solvent system, all four atropoisomers collapsed into a single peak, enhancing the sensitivity of the method to as low as 0.5 nM (nanomoles per L of tissue homogenate). Analyses were performed using a Phenomenex Luna C18 guard cartridge (ID × L, 2 × 4 mm) only. […] Their structures are also shown. […] The response was calculated as the ratio between the standard peak area and the internal standard peak area. We conducted a 7-day rat PK study under conditions identical to those that afforded the therapeutic efficacy of MnTnHex-2-PyP^5+ in an earlier study. […] Afterwards, blood/plasma samples were collected before injection and at 2 h after 24 h-injections (every second injection). Liver and brains were taken for analysis 12 h after the last injection. Three rats were used per compound. After the single (first) SC injection, we obtained a prototypical PK profile observed in the case of all Mn(III) ortho […] In contrast, although similarly absorbed after SC injection, the […] Our understanding is that the “elimination” process is actually a fast distribution/retention into/by the liver, kidney, and spleen, a multi-compartmental process responsible for early decay of the plasma concentration, observed for all Mn porphyrin analogs investigated.

mouse MCAO stroke model = test: 3-day mouse MCAO efficacy study; format: in vivo, mice
Experimental: We performed a mouse MCAO study to define a dose of FeHex for a larger rat MCAO study. The 81 C57Bl/6J mice (8–10 weeks old) were subjected to 90 min of MCAO right hemisphere occlusion. Mice were fasted overnight before injury. They were under isoflurane anesthesia during ischemia, and the pericranial temperature was automatically controlled at 37 °C using a surface heating and cooling system. Ischemia was made through a small window on the left temporal bone, and the main trunk of the middle cerebral artery was transiently tied with a fine silk suture for 90 min. Muscle and skin layers were closed after ischemia/reperfusion. Mice were allowed to awake and survive for 3 days. […] Mice were sacrificed under deep anesthesia at 3 days post-ischemia/reperfusion. The brain was quickly frozen in −20 °C 2-methybutane and stored in the freezer for histological analysis. Liver and brain were taken for LCMS/MS analysis of the levels of FeHex. Body weight, rotarod performance, and Corner test were assessed before and 3 days after injury. Neurological deficit (neuroscore) and infarct volume were evaluated at 3 days after injury.
The rotarod test was performed on the day before surgery and 3 days after ischemia/reperfusion. Three trials were performed with a 15-min intra-trial rest. Mice were placed on the rod and then the machine was started. The speed was accelerated from 4 turns/min to 40 turns per min. The latency to fall from the rod was automatically recorded. The data are presented in % and are calculated as [(reading after injury)/(reading before surgery-baseline reading)] × 100. Neurological deficit was assessed based on the neuroscore system we previously used that includes the general status and motor and sensory functions. For the corner test, two clean boards were placed in “V” fashion at an angle of 30° relative to the walking axes and mice were left to walk in towards the apex of the “V”. Mice usually make left turns more frequently when injury is severe enough. The left turn was calculated from the number of left (L) turn/total turns (L + Right turn). Normal animals would have as many left as right turns (50% = normal). When all turns are to the left, the value at y-axis is 100%, the most severe score. Body weight loss is expressed as a difference in body weight at 3 days post-stroke minus body weight on the surgery day.

[3] = healthy rats, SC 0.225 mg/kg BID 7 days, 12 h after last injection
[4] = healthy rats, SC 0.225 mg/kg BID 7 days, WinNonlin simulation
[5] = 0.225 mg/kg IV twice daily 3 days

For “monohydroxo Fe(III) meso-tetrakis(N-n-hexylpyridinium-2yl)porphyrin [FeHex]”, the “log kcat(O2^•−), log of rate constant for catalysis of O2^•− dismutation” value [1] is given as 7.53, the “p, cortex infarct volume vs vehicle” value (rat MCAO stroke model) is given as 0.48 and the “p, neuroscore vs vehicle” value (rat MCAO stroke model) is given as 0.28. The “p, subcortex infarct volume vs vehicle” value (rat MCAO stroke model) was 0.11, the “p, total infarct volume vs vehicle” value (rat MCAO stroke model) was 0.31 and the “neurological deficit (neuroscore and infarct volume)” value (rat MCAO stroke model; first dose IV, then SC) was “only slightly, but insignificantly, improved”. The “efficacy in SOD-deficient E. coli model relative to MnHex” value (SOD-deficient E. coli) was ~ 2 orders of magnitude, the “plasma exposure (AUC) relative to MnHex” value ([2]; 7-day twice-daily treatment of rats) was “more than 2 fold” and the “brain concentration at end of 7-day treatment” value [2, 3] was 24 nM. For the same substance, the “end-of-treatment 7-day liver tissue level” value [2, 3] was 0.04 µM, the “average plasma concentration (Caver)” value [2, 4] was 160 nM and the “plasma AUC” value [2, 4] was 26.9 µM·h. The Cmax ([2]; healthy rats, SC 0.225 mg/kg BID 7 days, WinNonlin simulation, read-out: Cmax at steady state, plasma) was 210 nM, the “elimination from plasma after single (first) SC injection” value ([2]; healthy rats, SC 0.225 mg/kg, first 12 h) was “much slower elimination from the plasma” and the plasma half-life ([2]; healthy rats, SC 0.225 mg/kg, estimated from simulation, 0.225 mg/kg) was 23 h and ~ 23 h. The neuroscore (mouse MCAO stroke model; [5]) was “improved”, the “p, Corner test vs vehicle” value (mouse MCAO stroke model; [5]) was 0.09 and the “p, body weight change vs vehicle” value (mouse MCAO stroke model; [5]) was 0.0347. For the same substance, the “p, infarct volume vs vehicle” value (mouse MCAO stroke model; [5]) was 0.48, the “p, neuroscore vs vehicle” value (mouse MCAO stroke model; [5]) was 0.047 and the “p, rotarod vs vehicle” value (mouse MCAO stroke model; [5]) was 0.59. The body weights (mouse MCAO stroke model; 0.225 mg/kg IV twice daily 3 days, from 90 min post ischemia/reperfusion) was “improved” and the “infarct volume relative to vehicle” value (mouse MCAO stroke model; 0.05, 0.225 and 1 mg/kg IV twice daily 3 days) was “No significant change”.
